In patent US10201499B2, “Nanoparticle formulation” (United Kingdom Research and Innovation, priority 2012, dated 2019):

Tested on: HT-29 cells
Conditions: 5 mM; p<0.01 vs control
Method: FIG. 20. Mitochondrial calorimetry. HT-29 cells were treated with acetate (5 mM) or without (Control) and assessed for ATP production by the Seahorse assay in vitro.

CC(=O)O [Acetate]
ATP production: significantly increase
